29 sequences from the supplement of paper PMC11208160 can be followed below.
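Further: IS621 bridge recombinase in Escherichia coli cells against a fixed T5 target plasmid.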

A short description of this data set: recombinant UMI read abundance after kanamycin selection (control-corrected) (log10(CPM+1)); higher = more efficient recombination; extreme values may be limits of the assay; sequences stand for … in AGTGCAGAGAAAATCGGCCAGTTTTCTCTGCCTGCAGTCCGCATGCCGTGGGACCCCTTGGGTTCTAACCTGTTGCCTAGATTTATGCAGCGGACTGCCTTTCTCCCAAAGTGATAAACCGG…AGGTTGGTTTCACT; site = the 11-nt donor. An outline of the steps: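 Two replicates each of selected and unselected plating were used in this pooled Escherichia coli screen of donor and donor-binding-loop pairs for the IS621 bridge recombinase. Selection was with IPTG (0.07 mM) and kanamycin. Counts of recombinant UMIs, amplified across the donor–target junction, were converted to CPM, averaged, scaled by control-derived factors and reported as log10(CPM+1).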
On to “CGGAAACCATGGACCGGTTTTCCCGGTAATCCGTATTTGTT (site CGGAACCCTAA)”, for which the “recombinant UMI read abundance (log10)” value stood at 0.00618.

Turning to “CGGAAACCATGGACCGGTTTTCCCGGTAATCCGTATTTGTT (site CGGAAGCCTAA)”, the “recombinant UMI read abundance (log10)” value is 0.00793.

With “CGGAAACCATGGACCGGTTTTCCCGGTAATCCGTATTTGTT (site CGGAATCCTAA)”, the “recombinant UMI read abundance (log10)” value amounted to 0.

“CGGAAATCATGGACCGGTTTTCCCGGTAATCCGTATTTGTT (site CGGAAATCTAA)”: the “recombinant UMI read abundance (log10)” value was 2.29.

In the case of “CGGAAATCATGGACCGGTTTTCCCGGTAATCCGTATTTGTT (site CGGAATCCTAA)”, the “recombinant UMI read abundance (log10)” value is 0.

Take “CGGAACCCATGGACCGGTTTTCCCGGTAATCCGTATTTGTT (site CGGAAACCTAA)”: the “recombinant UMI read abundance (log10)” value is 0.0541.

As to “CGGAACCCATGGACCGGTTTTCCCGGTAATCCGTATTTGTT (site CGGAACCCTAA)”, the “recombinant UMI read abundance (log10)” value stood at 0.964.

In the case of “CGGAACCCATGGACCGGTTTTCCCGGTAATCCGTATTTGTT (site CGGAAGCCTAA)”, the “recombinant UMI read abundance (log10)” value is 0.00321.

For “CGGAACCCATGGACCGGTTTTCCCGGTAATCCGTATTTGTT (site CGGAATCCTAA)”, the “recombinant UMI read abundance (log10)” value came to 0.208.

Turning to “CGGAAGACATGGACCGGTTTTCCCGGTAATCCGTATTTGAA (site AGGAAGACTTG)”, the “recombinant UMI read abundance (log10)” value is 0.

As for “CGGAAGACATGGACCGGTTTTCCCGGTAATCCGTATTTGAA (site CGGAAGACTTT)”, the “recombinant UMI read abundance (log10)” value was 2.24.

Take “CGGAAGCCATGGACCGGTTTTCCCGGTAATCCGTATTTGTT (site CGGAAACCTAA)”: the “recombinant UMI read abundance (log10)” value stood at 0.

As for “CGGAAGCCATGGACCGGTTTTCCCGGTAATCCGTATTTGTT (site CGGAACCCTAA)”, the “recombinant UMI read abundance (log10)” value stood at 0.00486.

Take “CGGAAGCCATGGACCGGTTTTCCCGGTAATCCGTATTTGTT (site CGGAAGCCTAA)”: the “recombinant UMI read abundance (log10)” value came out at 0.218.

As to “CGGAAGCCATGGACCGGTTTTCCCGGTAATCCGTATTTGTT (site CGGAATCCTAA)”, the “recombinant UMI read abundance (log10)” value was determined as 0.

Regarding “CGGAAGTCATGGACCGGTTTTCCCGGTAATCCGTATTTGCC (site CGGAAGTCTGG)”, the “recombinant UMI read abundance (log10)” value is 2.88.

As for “CGGAAGTCATGGACCGGTTTTCCCGGTAATCCGTATTTGCC (site CGGCAGTCTGG)”, the “recombinant UMI read abundance (log10)” value amounted to 0.

With “CGGAAGTCATGGACCGGTTTTCCCGGTAATCCGTATTTGCC (site CGGGAGTCTGG)”, the “recombinant UMI read abundance (log10)” value was determined as 0.686.

Take “CGGAAGTCATGGACCGGTTTTCCCGGTAATCCGTATTTGCC (site CGGTAGTCTGG)”: the “recombinant UMI read abundance (log10)” value amounted to 1.08.

Take “CGGAATACATGGACCGGTTTTCCCGGTAATCCGTATTTGAT (site CGGAATACTAT)”: the “recombinant UMI read abundance (log10)” value is 2.16.

With “CGGAATACATGGACCGGTTTTCCCGGTAATCCGTATTTGAT (site CGGAATCCTAA)”, the “recombinant UMI read abundance (log10)” value was 0.

Turning to “CGGAATCCATGGACCGGTTTTCCCGGTAATCCGTATTTGCT (site CGGAATCCTAA)”, the “recombinant UMI read abundance (log10)” value is 0.106.

In the case of “CGGAATCCATGGACCGGTTTTCCCGGTAATCCGTATTTGCT (site CGGAATCCTAC)”, the “recombinant UMI read abundance (log10)” value was found to be 0.

As to “CGGAATCCATGGACCGGTTTTCCCGGTAATCCGTATTTGCT (site CGGAATCCTAG)”, the “recombinant UMI read abundance (log10)” value is 2.08.

“CGGAATCCATGGACCGGTTTTCCCGGTAATCCGTATTTGCT (site CGGAATCCTAT)”: the “recombinant UMI read abundance (log10)” value was found to be 0.767.

For “CGGAATCCATGGACCGGTTTTCCCGGTAATCCGTATTTGTC (site CGGAATCCTAA)”, the “recombinant UMI read abundance (log10)” value was 0.

For “CGGAATCCATGGACCGGTTTTCCCGGTAATCCGTATTTGTC (site CGGAATCCTCA)”, the “recombinant UMI read abundance (log10)” value is 0.00507.

As to “CGGAATCCATGGACCGGTTTTCCCGGTAATCCGTATTTGTC (site CGGAATCCTGA)”, the “recombinant UMI read abundance (log10)” value is 2.06.

“CGGAATCCATGGACCGGTTTTCCCGGTAATCCGTATTTGTC (site CGGAATCCTTA)”: the “recombinant UMI read abundance (log10)” value worked out at 0.
